The results in this text go back to US9919998B2, “Antibacterial agents: Nα-aroyl-N-aryl-phenylalaninamides” (priority 2014, dated 2018).

The subject of series [1] is AAP1-resistant mutants, derivatives of M. smegmatis ATCC19420. The experiment in a line: MICs in AAP1-resistant mutants (resistance and cross-resistance levels). Particulars: MICs in AAP1-resistant mutants. Type of series: cell-based, Mycobacterium smegmatis.
Series [2] relates to Vero E6 ATCC CRL1586 cells. The experiment in a line: Mammalian-cell cytotoxicity, minimal cytotoxic concentration (CellTiter96). Type of series: cell-based. Here is the method:
Minimal cytotoxic concentrations (MCCs) against mammalian cells in culture were determined using Vero E6 ATCC CRL1586 cells and the CellTiter96 assay kit (Promega, Inc.). […]

For series [3], the system named is Mycobacterium smegmatis ATCC 19420. The experiment in a line: Broth microdilution MIC, M. smegmatis. The series is classed as cell-based. The note with it: Mycolicibacterium smegmatis, ATCC19420, M. smegmatis ATCC 19420; read-out: MIC Mycobacterium smegmatis ATCC 19420. From the text:
(§1) MICs in Mycobacterium smegmatis ATCC 19420 and Mycobacterium smegmatis ATCC 19420 derivatives were quantified using broth microdilution assays as described [Clinical and Laboratory Standards Institute (CLSI/NCCLS) (2009) Methods for Dilution Antimicrobial Susceptibility Tests for Bacteria That Grow Aerobically; Approved Standard, Eighth Edition. CLIS Document M07-A8 (CLIS, Wayne Pa.)].

In series [4] the test system is Mycobacterium tuberculosis H37Rv. The experiment in a line: Microplate Alamar Blue assay (MABA) MIC, M. tuberculosis. The series is classed as cell-based. The note with it: read-out: MIC Mycobacterium tuberculosis H37Rv. An excerpt:
(§2) Minimal inhibitory concentrations (MICs) in Mycobacterium tuberculosis H37Rv and Mycobacterium avium ATCC 25291 were quantified using microplate Alamar Blue assays as described (MABA; [Collins, L. & Franzblau, S. (1997) Microplate Alamar Blue assay versus BACTEC 460 system for high-throughput screening of compounds against Mycobacterium tuberculosis and Mycobacterium avium. Antimicrob. Agents Chemother. 41, 1004-1009]).
(In general: Alamar Blue is a resazurin reagent that responds to reducing activity.)

Series [5] concerns Mycobacterium avium ATCC 25291. Briefly: Microplate Alamar Blue assay (MABA) MIC, M. avium. The series is classed as cell-based. The note with it: ATCC25291, M. avium ATCC 25291.
Description: as §2

Series [6] deals with Mycobacterium smegmatis, Mycobacterium tuberculosis, and Mycobacterium avium. The experiment in a line: organism not typed. Type of series: cell-based. The note with it: read-out: MICs, inhibition of mycobacterial growth.
For series [7], the system named is rifampin-resistant mutants, derivatives of M. smegmatis ATCC19420. The experiment in a line: MICs in rifampin-resistant mutants (cross-resistance levels). Type of series: cell-based, Mycobacterium smegmatis.
Description: as §1

Series [8] deals with Mycobacterium tuberculosis RNA polymerase (Mycobacterium tuberculosis, UniProt P9WGY7+P9WGY9). The experiment in a line: Run-off transcription assay with Mycobacterium tuberculosis RNA polymerase (radiochemical). Type of series: biochemical. Here is the method: Run-off transcription assays with Mycobacterium tuberculosis RNA polymerase were performed using reaction mixtures containing (10 μl): 0-100 μM test compound, 75 nM Mycobacterium tuberculosis RNA polymerase core enzyme, 300 nM Mycobacterium tuberculosis σ^A, 20 nM 130 bp DNA fragment containing positions −100 to −1 of the bacteriophage […] N25 promoter followed by positions +1 to +30 of the lacUV5-15 promoter of [Mukhopadhyay, J., Kapanidis, A., Mekler, V., Kortkhonjia, E., Ebright, Y., Ebright, R. (2001) Cell 106, 453-463], 25 nM [alpha-^32P]UTP (600 Bq/pmol) for an initial 2 min at 37° C. and 100 μM [alpha-^32P]UTP (6 Bq/pmol) for a subsequent 5 min at 37° C., 100 μM ATP, 100 μM GTP, 100 μM UTP, 100 μM CTP, 40 mM Tris-HCl, pH 8.0, 80 mM NaCl, 5 mM MgCl2, 2.5 mM DTT, and 12.7% glycerol. Reactions were terminated by addition of […] 80% formamide, 10 mM EDTA, 0.04% bromophenol blue, and 0.04% xylene cyanol, followed by heating for 5 min at 90° C. Reaction products were resolved by 15% urea-PAGE, and quantified using a storage-phosphor scanner.

Where [9] appears, read: IC50 Mycobacterium tuberculosis RNA polymerase.

Structures are written as SMILES. In brackets after ≈: the same amount, converted by molar mass. Several values for one entry are separate records, joined by “and”; a condition that tells them apart may be missing. Equal entries are not always repeated.

In general, IC50 refers to the midpoint of a concentration-inhibition curve. A low value points to higher potency.

Chain of Mycobacterium tuberculosis RNA polymerase (P9WGZ1 whole entry, the tested form may be a part): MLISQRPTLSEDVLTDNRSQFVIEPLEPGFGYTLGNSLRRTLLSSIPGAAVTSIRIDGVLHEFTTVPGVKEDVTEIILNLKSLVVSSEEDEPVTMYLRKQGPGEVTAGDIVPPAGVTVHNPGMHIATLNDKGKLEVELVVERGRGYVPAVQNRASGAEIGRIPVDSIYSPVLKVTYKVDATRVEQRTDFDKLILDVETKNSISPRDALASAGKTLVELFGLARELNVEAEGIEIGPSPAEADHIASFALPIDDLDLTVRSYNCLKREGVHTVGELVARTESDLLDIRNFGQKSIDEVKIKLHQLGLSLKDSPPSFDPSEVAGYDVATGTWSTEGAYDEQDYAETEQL
Chain of Mycobacterium tuberculosis RNA polymerase (P9WGY5 whole entry, further chain, the tested form may be a part): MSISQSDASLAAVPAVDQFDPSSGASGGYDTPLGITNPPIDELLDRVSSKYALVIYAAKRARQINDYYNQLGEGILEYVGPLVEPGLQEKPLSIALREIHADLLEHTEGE
Chain of Mycobacterium tuberculosis RNA polymerase (P9WGY9 whole entry, the tested form may be a part): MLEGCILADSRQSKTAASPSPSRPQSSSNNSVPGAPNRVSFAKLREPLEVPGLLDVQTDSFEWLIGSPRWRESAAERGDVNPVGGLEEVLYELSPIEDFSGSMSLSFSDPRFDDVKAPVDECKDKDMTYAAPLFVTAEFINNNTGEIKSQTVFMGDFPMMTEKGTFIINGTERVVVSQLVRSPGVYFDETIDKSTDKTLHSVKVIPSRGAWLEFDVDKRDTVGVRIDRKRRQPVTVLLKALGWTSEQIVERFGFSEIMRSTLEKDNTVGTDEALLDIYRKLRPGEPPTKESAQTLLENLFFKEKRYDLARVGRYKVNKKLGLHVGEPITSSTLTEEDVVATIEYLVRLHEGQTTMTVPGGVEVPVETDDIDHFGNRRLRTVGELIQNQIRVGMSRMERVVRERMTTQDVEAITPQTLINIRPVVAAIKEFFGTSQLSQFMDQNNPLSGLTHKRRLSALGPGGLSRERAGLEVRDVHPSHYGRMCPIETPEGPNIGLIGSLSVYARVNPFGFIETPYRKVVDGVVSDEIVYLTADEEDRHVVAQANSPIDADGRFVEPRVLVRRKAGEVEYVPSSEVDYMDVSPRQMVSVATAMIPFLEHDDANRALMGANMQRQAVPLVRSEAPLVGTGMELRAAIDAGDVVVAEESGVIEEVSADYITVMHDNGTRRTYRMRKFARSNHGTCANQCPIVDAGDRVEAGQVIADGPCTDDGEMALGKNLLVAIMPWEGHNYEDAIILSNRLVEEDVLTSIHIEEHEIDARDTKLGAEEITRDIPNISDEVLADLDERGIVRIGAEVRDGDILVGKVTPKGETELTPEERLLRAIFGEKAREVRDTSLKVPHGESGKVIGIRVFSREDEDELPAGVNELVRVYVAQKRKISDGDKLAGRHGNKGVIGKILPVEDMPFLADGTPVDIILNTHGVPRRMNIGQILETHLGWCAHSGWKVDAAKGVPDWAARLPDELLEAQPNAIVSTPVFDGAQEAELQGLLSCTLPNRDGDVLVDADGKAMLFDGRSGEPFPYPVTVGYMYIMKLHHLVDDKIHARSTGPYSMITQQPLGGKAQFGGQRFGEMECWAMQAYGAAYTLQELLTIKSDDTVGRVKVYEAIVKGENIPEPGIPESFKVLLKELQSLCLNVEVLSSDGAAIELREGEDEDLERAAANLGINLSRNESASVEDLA
Chain of Mycobacterium tuberculosis RNA polymerase (P9WGI1 whole entry, further chain, the tested form may be a part): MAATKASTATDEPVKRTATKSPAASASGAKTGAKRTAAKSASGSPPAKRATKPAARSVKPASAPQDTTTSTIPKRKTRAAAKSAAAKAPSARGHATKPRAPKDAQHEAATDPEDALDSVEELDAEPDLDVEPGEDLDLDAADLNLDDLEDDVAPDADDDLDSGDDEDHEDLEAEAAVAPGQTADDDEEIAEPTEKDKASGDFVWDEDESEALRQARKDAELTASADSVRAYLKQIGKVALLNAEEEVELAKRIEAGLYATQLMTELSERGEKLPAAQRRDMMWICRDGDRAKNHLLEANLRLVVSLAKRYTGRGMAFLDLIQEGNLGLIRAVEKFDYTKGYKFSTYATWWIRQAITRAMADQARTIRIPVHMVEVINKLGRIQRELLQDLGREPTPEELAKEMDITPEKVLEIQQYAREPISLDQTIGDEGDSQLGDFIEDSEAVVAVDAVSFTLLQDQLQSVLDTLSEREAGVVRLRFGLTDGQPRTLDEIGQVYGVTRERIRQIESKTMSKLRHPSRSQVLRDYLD
Chain of Mycobacterium tuberculosis RNA polymerase (P9WGY7 whole entry, the tested form may be a part): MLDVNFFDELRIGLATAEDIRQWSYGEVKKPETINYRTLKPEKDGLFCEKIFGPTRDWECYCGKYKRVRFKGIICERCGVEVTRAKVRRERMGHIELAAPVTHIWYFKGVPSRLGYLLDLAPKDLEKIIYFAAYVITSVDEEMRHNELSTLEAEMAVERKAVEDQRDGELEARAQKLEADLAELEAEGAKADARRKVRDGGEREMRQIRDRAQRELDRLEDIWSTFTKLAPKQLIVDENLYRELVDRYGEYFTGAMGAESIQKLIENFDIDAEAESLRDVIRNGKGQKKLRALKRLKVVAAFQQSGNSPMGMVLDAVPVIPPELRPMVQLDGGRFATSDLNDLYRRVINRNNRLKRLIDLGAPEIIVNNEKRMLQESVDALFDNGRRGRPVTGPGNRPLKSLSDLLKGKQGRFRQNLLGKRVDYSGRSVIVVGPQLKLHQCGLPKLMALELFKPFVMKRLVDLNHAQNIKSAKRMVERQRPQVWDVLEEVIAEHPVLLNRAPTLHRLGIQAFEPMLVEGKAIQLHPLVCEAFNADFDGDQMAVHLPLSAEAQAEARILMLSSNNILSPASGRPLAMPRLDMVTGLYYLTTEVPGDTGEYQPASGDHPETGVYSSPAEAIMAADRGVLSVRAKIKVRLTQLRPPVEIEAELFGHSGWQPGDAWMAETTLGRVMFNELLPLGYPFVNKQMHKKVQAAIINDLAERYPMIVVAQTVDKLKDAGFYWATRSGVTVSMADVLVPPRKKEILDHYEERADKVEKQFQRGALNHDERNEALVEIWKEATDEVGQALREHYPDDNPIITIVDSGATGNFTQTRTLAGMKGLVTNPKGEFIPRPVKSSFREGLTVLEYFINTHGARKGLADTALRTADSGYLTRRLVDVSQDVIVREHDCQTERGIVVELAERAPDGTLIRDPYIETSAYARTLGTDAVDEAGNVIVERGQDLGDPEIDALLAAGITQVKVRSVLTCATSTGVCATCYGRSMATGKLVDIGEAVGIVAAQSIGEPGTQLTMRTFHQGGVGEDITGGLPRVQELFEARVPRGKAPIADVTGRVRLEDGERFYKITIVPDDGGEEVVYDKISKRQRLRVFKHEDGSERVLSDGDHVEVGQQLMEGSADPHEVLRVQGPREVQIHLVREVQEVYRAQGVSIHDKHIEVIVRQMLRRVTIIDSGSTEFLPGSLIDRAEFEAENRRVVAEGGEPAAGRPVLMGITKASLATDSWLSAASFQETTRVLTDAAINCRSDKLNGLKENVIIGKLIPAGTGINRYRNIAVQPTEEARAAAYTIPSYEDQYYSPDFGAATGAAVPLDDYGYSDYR

Consider `O=C(NC(Cc1ccccc1)C(=O)Nc1cc(F)ccc1N1CCNCC1)c1ccccc1F` (racemic) [IX-214, 2-fluoro-N-(1-((5-fluoro-2-(piperazin-1-yl)phenyl)amino)-1-oxo-3-phenylpropan-2-yl)benzamide], for which the “cross-resistance of AAP1-resistant mutants to the compound” value in series [1] is listed as “cross-resistance”. In addition, the “MCC mammalian cells Vero E6 ATCC CRL1586” value in series [2] came to 7 µg/mL. Also, the MIC is 0.195 µg/mL (≈ 0.42 µM) in series [3], 1.56 µg/mL (≈ 3.36 µM) in series [4], 1.56 µg/mL (≈ 3.36 µM) in series [5] and no less than 0.073 µg/mL in series [6]. The “cross-resistance of rifampin-resistant mutants to the compound” value in series [7] is “No rifampin-resistant mutant was found to exhibit cross-resistance”.

With `Cc1ccccc1NC(=O)C(Cc1ccc(O)cc1)NC(=O)c1ccccc1` (stereo not drawn) [I-13, N-(3-(4-hydroxyphenyl)-1-oxo-1-(o-tolylamino)propan-2-yl)benzamide], the “cross-resistance of AAP1-resistant mutants to the compound” value in series [1] was “cross-resistance”. In addition, the “MCC mammalian cells Vero E6 ATCC CRL1586” value in series [2] amounted to 37 µg/mL. For the same molecule, the MIC in series [3] turned out to be 0.195 µg/mL (≈ 0.521 µM); in series [4] it was 12.5 µg/mL (≈ 33.4 µM); in series [5], 25 µg/mL (≈ 66.8 µM). In addition, the “cross-resistance of rifampin-resistant mutants to the compound” value in series [7] is “No rifampin-resistant mutant was found to exhibit cross-resistance”.

With `Cc1ccc(Cl)cc1NC(=O)C(Cc1ccccc1)NC(=O)c1ccccc1F` (stereo not drawn) [IX-55, N-(1-((5-chloro-2-methylphenyl)amino)-1-oxo-3-phenylpropan-2-yl)-2-fluorobenzamide], in series [1], the “cross-resistance of AAP1-resistant mutants to the compound” value is reported as “cross-resistance”. The “MCC mammalian cells Vero E6 ATCC CRL1586” value in series [2] was 10 µg/mL. The values for the MIC in series [3], in series [4] and in series [5] were 0.39 µg/mL (≈ 0.949 µM), 1.56 µg/mL (≈ 3.8 µM) and 3.12 µg/mL (≈ 7.61 µM), respectively. In series [8] (setting [9]), this molecule had an IC50 of 470 nM.

Turning to `COc1ccc(F)cc1NC(=O)C(Cc1ccccc1)NC(=O)c1ccccc1` (stereo not drawn) [IX-73, N-(1-((5-fluoro-2-methoxyphenyl)amino)-1-oxo-3-phenylpropan-2-yl)benzamide], in series [1], the “cross-resistance of AAP1-resistant mutants to the compound” value is “cross-resistance”. For the same molecule, the “MCC mammalian cells Vero E6 ATCC CRL1586” value in series [2] was greater than 100 µg/mL. Moreover, the MIC in series [3] was found to be 0.19 µg/mL (≈ 0.484 µM); in series [4] it was 1.56 µg/mL (≈ 3.98 µM); in series [5] it was 0.78 µg/mL (≈ 1.99 µM).

Consider `O=C(NC(Cc1ccccc1)C(=O)Nc1ccccc1N1CCNCC1)c1ccccc1F` (stereo not drawn) [IX-211, 2-fluoro-N-(1-oxo-3-phenyl-1-((2-(piperazin-1-yl)phenyl)amino)-propan-2-yl)benzamide], for which the “cross-resistance of AAP1-resistant mutants to the compound” value in series [1] is recorded as “cross-resistance”. In addition, the “MCC mammalian cells Vero E6 ATCC CRL1586” value in series [2] worked out at 18 µg/mL. The MIC in series [3] turned out to be 0.09 µg/mL (≈ 0.202 µM); in series [4], 1.56 µg/mL (≈ 3.49 µM); in series [5], 1.56 µg/mL (≈ 3.49 µM).

Turning to `Cc1ccccc1C(=O)NC(Cc1ccccc1)C(=O)Nc1ccccc1N1CCNCC1` (stereo not drawn) [IX-212, 2-methyl-N-(1-oxo-3-phenyl-1-((2-(piperazin-1-yl)phenyl)amino)-propan-2-yl)benzamide], in series [1], the “cross-resistance of AAP1-resistant mutants to the compound” value is “cross-resistance”. Moreover, in series [2], the “MCC mammalian cells Vero E6 ATCC CRL1586” value turned out to be 15 µg/mL. Moreover, the MIC is 0.097 µg/mL (≈ 0.219 µM) in series [3], 1.56 µg/mL (≈ 3.52 µM) in series [4] and 1.56 µg/mL (≈ 3.52 µM) in series [5].

As to `O=C(NC(Cc1ccccc1)C(=O)Nc1ccccc1N1CCNCC1)c1cccs1` (stereo not drawn) [IX-213, N-(1-oxo-3-phenyl-1-((2-(piperazin-1-yl)phenyl)amino)propan-2-yl)thiophene-2-carboxamide], in series [1], the “cross-resistance of AAP1-resistant mutants to the compound” value was “cross-resistance”. Also, in series [2], the “MCC mammalian cells Vero E6 ATCC CRL1586” value was 33 µg/mL. The MIC in series [3] turned out to be 0.097 µg/mL (≈ 0.223 µM); in series [4] it was 1.56 µg/mL (≈ 3.59 µM); in series [5] it was 0.78 µg/mL (≈ 1.79 µM).

Consider `O=C(N[C@H](Cc1ccccc1)C(=O)Nc1cc(F)ccc1N1CCNCC1)c1ccccc1F` [IX-214a, (R)-2-fluoro-N-(1-((5-fluoro-2-(piperazin-1-yl)phenyl)amino)-1-oxo-3-phenylpropan-2-yl)benzamide], for which the MIC in series [3] is 0.073 µg/mL (≈ 0.157 µM); in series [4] it was 0.78 µg/mL (≈ 1.68 µM); in series [5], less than 0.195 µg/mL; in series [6], no less than 0.073 µg/mL.

For the molecule `Cc1ccccc1C(=O)NC(Cc1ccccc1)C(=O)Nc1cc(F)ccc1N1CCNCC1` (stereo not drawn) [IX-215, N-(1-((5-fluoro-2-(piperazin-1-yl)phenyl)amino)-1-oxo-3-phenylpropan-2-yl)-2-methylbenzamide], the “cross-resistance of AAP1-resistant mutants to the compound” value in series [1] is on record as “cross-resistance”. Moreover, the “MCC mammalian cells Vero E6 ATCC CRL1586” value in series [2] was 7 µg/mL. For the same molecule, the results for the MIC in series [3], in series [4] and in series [5] were 0.19 µg/mL (≈ 0.413 µM), 1.56 µg/mL (≈ 3.39 µM) and 0.78 µg/mL (≈ 1.69 µM), respectively. In addition, the “cross-resistance of rifampin-resistant mutants to the compound” value in series [7] is listed as “No rifampin-resistant mutant was found to exhibit cross-resistance”. This molecule displayed an IC50 in series [8] (setting [9]) of 140 nM.

With `O=C(NC(Cc1ccccc1)C(=O)Nc1cc(F)ccc1N1CCNCC1)c1cccs1` (stereo not drawn) [IX-216, N-(1-((5-fluoro-2-(piperazin-1-yl)phenyl)amino)-1-oxo-3-phenylpropan-2-yl)thiophene-2-carboxamide], the “cross-resistance of AAP1-resistant mutants to the compound” value in series [1] is listed as “cross-resistance”. Moreover, in series [2], the “MCC mammalian cells Vero E6 ATCC CRL1586” value was determined as 11 µg/mL. Besides, the MIC is 0.097 µg/mL (≈ 0.214 µM) in series [3], 1.56 µg/mL (≈ 3.45 µM) in series [4] and 0.78 µg/mL (≈ 1.72 µM) in series [5]. Further, the “cross-resistance of rifampin-resistant mutants to the compound” value in series [7] is given as “No rifampin-resistant mutant was found to exhibit cross-resistance”. Also, the IC50 in series [8] (setting [9]) stood at 280 nM.

For `O=C(N[C@H](Cc1ccccc1)C(=O)Nc1cc(Cl)ccc1N1CCNCC1)c1ccccc1F` [IX-274a, (R)—N-(1-((5-chloro-2-(piperazin-1-yl)phenyl)amino)-1-oxo-3-phenylpropan-2-yl)-2-fluorobenzamide], the MIC in series [3] is 0.073 µg/mL (≈ 0.152 µM); in series [4] it was 0.78 µg/mL (≈ 1.62 µM); in series [5], 0.39 µg/mL (≈ 0.811 µM); in series [6], no less than 0.073 µg/mL. Further, the IC50 in series [8] (setting [9]) was 17 nM; in series [8] (Inhibition of mycobacterial RNA polymerase (IC50s), radiochemical transcription assays, M. tuberculosis RNA polymerase), ≥ 10 nM and 10 to 74 nM.

Regarding `Cc1ccccc1C(=O)NC(Cc1ccccc1)C(=O)Nc1cc(Cl)ccc1N1CCNCC1` (stereo not drawn) [IX-275, N-(1-((5-chloro-2-(piperazin-1-yl)phenyl)amino)-1-oxo-3-phenyl-propan-2-yl)-2-methylbenzamide], in series [1], the “cross-resistance of AAP1-resistant mutants to the compound” value was “cross-resistance”. In series [2], the “MCC mammalian cells Vero E6 ATCC CRL1586” value came out at 12.5 µg/mL. Further, the MIC in series [3] is 0.39 µg/mL (≈ 0.818 µM); in series [4], 1.56 µg/mL (≈ 3.27 µM); in series [5] it was 0.78 µg/mL (≈ 1.64 µM). In series [8] (setting [9]), 100 nM corresponded to half-maximal inhibition (IC50).
